Results reported in US11976080B1, “Benzofuro[3,2-c]chromen-6-one compounds as antibacterial agents” (King Faisal University, priority 2023, dated 2024).
pIC50: −log10 of the molar value. In brackets after ≈: the same amount, converted by molar mass. Read-outs that look alike come from different tables or passages of the source.

Experiments:
[1] = system: Staphylococcus aureus ATCC 29213; experiment: In vitro antibacterial activity (CLSI dilution MIC); format: cell-based; conditions: ATCC29213
[2] = system: Staphylococcus aureus ATCC BAA-1556 (MERSA resistant); experiment: as above; format: cell-based; conditions: ATCCBAA1556
[3] = system: Staphylococcus epidermidis; experiment: as above; format: cell-based
[4] = system: Bacillus subtilis MTCC 441; experiment: as above; format: cell-based; conditions: MTCC441
[5] = system: Enterococcus faecium ATCC 35667; experiment: as above; format: cell-based; conditions: ATCC35667
[6] = system: Enterococcus faecium ATCC 51559 (VRE resistant); experiment: as above; format: cell-based
[7] = system: Klebsiella pneumonia MTCC 618; experiment: as above; format: cell-based; conditions: Klebsiella pneumoniae, MTCC618
[8] = system: Escherichia coli MTCC 443; experiment: as above; format: cell-based; conditions: MTCC443
[9] = system: Pseudomonas aeruginosa MTCC 741; experiment: as above; format: cell-based; conditions: MTCC741
[10] = system: Mycobacterium tuberculosis H37Rv strain; experiment: Anti-tubercular alamar blue microplate MIC assay; format: cell-based; conditions: 168 h, 7 days, read-out: anti-mycobacterial activity (MIC)
DNA gyrase from E. coli = target: T1, DNA gyrase from E. coli (Escherichia coli, UniProt P0AES4+P0AES6); experiment: Inspiralis E. coli DNA gyrase inhibition assay; format: biochemical
T1 construct: purchased Inspiralis
T1 sequence (P0AES4 whole entry, one chain of several): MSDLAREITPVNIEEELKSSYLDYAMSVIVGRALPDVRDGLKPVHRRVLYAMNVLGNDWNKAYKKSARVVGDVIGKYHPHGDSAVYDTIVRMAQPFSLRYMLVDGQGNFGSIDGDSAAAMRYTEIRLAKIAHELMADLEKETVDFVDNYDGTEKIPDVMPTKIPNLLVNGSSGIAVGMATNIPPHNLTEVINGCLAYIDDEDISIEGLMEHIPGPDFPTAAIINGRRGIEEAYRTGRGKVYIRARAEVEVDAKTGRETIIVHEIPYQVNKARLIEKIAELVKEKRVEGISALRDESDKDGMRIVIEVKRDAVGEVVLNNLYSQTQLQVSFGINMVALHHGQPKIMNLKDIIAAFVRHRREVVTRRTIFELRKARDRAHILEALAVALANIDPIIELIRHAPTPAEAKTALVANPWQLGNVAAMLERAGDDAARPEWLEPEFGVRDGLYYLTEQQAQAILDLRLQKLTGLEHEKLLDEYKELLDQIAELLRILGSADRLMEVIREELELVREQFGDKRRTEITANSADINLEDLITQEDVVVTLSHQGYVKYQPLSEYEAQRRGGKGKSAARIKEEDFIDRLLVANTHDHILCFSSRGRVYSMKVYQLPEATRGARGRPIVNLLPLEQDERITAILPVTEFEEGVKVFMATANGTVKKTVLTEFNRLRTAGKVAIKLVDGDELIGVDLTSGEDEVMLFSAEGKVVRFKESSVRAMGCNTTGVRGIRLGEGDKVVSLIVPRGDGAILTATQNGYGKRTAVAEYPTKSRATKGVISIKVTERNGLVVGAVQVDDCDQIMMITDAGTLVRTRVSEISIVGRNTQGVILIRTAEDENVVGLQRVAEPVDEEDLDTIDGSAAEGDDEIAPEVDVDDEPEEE
Description: Inhibitory potencies were investigated utilizing the Inspiralis assay on streptavidin-coated 96-well microtiter plates. First, the plates were rehydrated with buffer (20 mM Tris-HCl with pH 7.6, 0.01% w/v BSA, 0.05% v/v Tween 20, 137 mM NaCl) and the biotinylated oligonucleotide was then immobilized. After washing off the unbound oligonucleotide, the enzyme test was performed. The reaction volume of 30 μL in buffer (35 mM Tris×HCl with pH 7.5, 4 mM MgCl2, 24 mM KCl, 2 mM DTT, 1.8 mM spermidine, 1 mM ATP, 6.5% w/v glycerol, 0.1 mg/mL albumin) contained 1.5 U of DNA gyrase from E. coli, 0.75 μg of relaxed pNO1 plasmid, and 3 μL solution of the inhibitor in 10% DMSO and 0.008% Tween 20. Reaction solutions were incubated at 37° C. for 30 min. After that, the TF buffer (50 mM NaOAc with pH 5.0, 50 mM NaCl and 50 mM MgCl2) was added to terminate the enzymatic reaction. After additional incubation for 30 min at rt, during which biotinoligonucleotide-plasmid triplex was formed, the unbound plasmid was washed off using TF buffer and SybrGOLD in T10 buffer (10 mM Tris HCl with pH 8.0 and 1 mM EDTA) was added. The fluorescence was measured with a microplate reader (BioTek Synergy H4, excitation: 485 nm, emission: 535 nm). Initial screening was done at 100 or 10 μM concentration of inhibitors. […] GraphPad Prism software was used to calculate the IC50 values. […]

Structure (SMILES) | MIC [1] [µg/mL] | MIC [2] [µg/mL] | MIC [3] [µg/mL] | MIC ([4]; Bacillus subtilis MTCC 441, read-out: MIC) [µg/mL] | MIC [5] [µg/mL] | MIC [6] [µg/mL] | MIC ([7]; Klebsiella pneumonia MTCC 618, read-out: MIC) [µg/mL] | MIC [8] [µg/mL] | MIC ([9]; Pseudomonas aeruginosa MTCC 741, read-out: MIC) [µg/mL] | MIC [10] [µg/mL] | pIC50 (DNA gyrase from E. coli) | MIC ([4]; Bacillus subtilis) [µg/mL] | MIC [7] [µg/mL] | MIC ([9]; Pseudomonas aeruginosa) [µg/mL]
CC(=O)Nc1ccc2oc3c4ccc(CC(=O)O)cc4oc(=O)c3c2c1 [Compound 5, 2-(8-acetamido-6-oxo-6H-benzofuro[3,2-c]chromen-3-yl)acetic acid] | 1 (≈ 2.85 µM) | 1 (≈ 2.85 µM) | 2 (≈ 5.69 µM) | 0.55 (≈ 1.57 µM) | 0.55 (≈ 1.57 µM) | 0.5 (≈ 1.42 µM) | 0.75 (≈ 2.13 µM) | 0.75 (≈ 2.13 µM) | 0.25 (≈ 0.712 µM) | 1 (≈ 2.85 µM) | 7.70 | – | – | –
CN[C@H](CC(C)C)C(=O)N[C@H]1C(=O)N[C@@H](CC(N)=O)C(=O)N[C@H]2C(=O)N[C@H]3C(=O)N[C@H](C(=O)N[C@H](C(=O)O)c4cc(O)cc(O)c4-c4cc3ccc4O)[C@H](O)c3ccc(c(Cl)c3)Oc3cc2cc(c3O[C@@H]2O[C@H](CO)[C@@H](O)[C@H](O)[C@H]2O[C@H]2C[C@](C)(N)[C@H](O)[C@H](C)O2)Oc2ccc(cc2Cl)[C@H]1O [Vancomycin, reference compound] | – | – | – | – | – | – | – | – | – | – | – | 0.5 (≈ 0.345 µM) | > 128 | > 128
